Experiments:
[1] = parameters: method as in supplement references [1-55] as printed per drug; conditions: minimum steady-state blood plasma concentration after multiple dose administration; ref supplement references [1-55] per drug; cited from earlier work
[2] = Autosampler stability of ready for injection samples; type: physicochemical, human
[3] = Freeze-thaw stability in spiked pooled human plasma; type: physicochemical

For CCN1CCN(Cc2ccc(Nc3ncc(F)c(-c4cc(F)c5nc(C)n(C(C)C)c5c4)n3)nc2)CC1 [Abemaciclib], which “cmin” value [1] is on record?
The value was 181 ng/mL.

What about the “Autosampler (24h, 4°C) Accuracy [%]” value ([2]; validation standard 2xLLOV) of the same compound?
The value was 99.5%.

And the “Autosampler (72h, 4°C) Accuracy [%]” value ([2]; validation standard 2xLLOV)?
Its value is 95.3%.

What about the “Autosampler (24h, 4°C) Accuracy [%]” value ([2]; validation standard LLOV) of the same compound?
The value was 89.1%.

And the “Autosampler (72h, 4°C) Accuracy [%]” value ([2]; validation standard LLOV)?
The value was 86.1%.

What about the “Autosampler (24h, 4°C) Accuracy [%]” value ([2]; validation standard MOV) of the same compound?
The value was 100.7%.

What about the “Autosampler (72h, 4°C) Accuracy [%]” value ([2]; validation standard MOV) of the same compound?
The value was 96.7%.

And the “Autosampler (24h, 4°C) Accuracy [%]” value ([2]; validation standard ULOV)?
Its value is 102.6%.

What about the “Autosampler (72h, 4°C) Accuracy [%]” value ([2]; validation standard ULOV) of the same compound?
The value was 100.1%.

And the “Freeze-Thaw Accuracy [%]” value ([3]; validation standard 2xLLOV)?
The value was 96.4%.

And the “Freeze-Thaw Accuracy [%]” value ([3]; validation standard LLOV)?
The value was 90.4%.

And the “Freeze-Thaw Accuracy [%]” value ([3]; validation standard MOV)?
Its value is 102.7%.

What about the “Freeze-Thaw Accuracy [%]” value ([3]; validation standard ULOV) of the same compound?
The value was 105.3%.

Which “cmin” value [1] does the source give for C[C@]12CC[C@H](O)CC1=CC[C@@H]1[C@@H]2CC[C@]2(C)C(c3cccnc3)=CC[C@@H]12 [Abiraterone] here?
The value was 9.3 ng/mL.

What about the “Autosampler (24h, 4°C) Accuracy [%]” value ([2]; validation standard 2xLLOV) of the same compound?
Its value is 98.9%.

What about the “Autosampler (72h, 4°C) Accuracy [%]” value ([2]; validation standard 2xLLOV) of the same compound?
Its value is 97.9%.

And the “Autosampler (24h, 4°C) Accuracy [%]” value ([2]; validation standard LLOV)?
The value was 90.8%.

And the “Autosampler (72h, 4°C) Accuracy [%]” value ([2]; validation standard LLOV)?
Its value is 94.9%.

What about the “Autosampler (24h, 4°C) Accuracy [%]” value ([2]; validation standard MOV) of the same compound?
The value was 104.6%.

What about the “Autosampler (72h, 4°C) Accuracy [%]” value ([2]; validation standard MOV) of the same compound?
The value was 101.6%.

What about the “Autosampler (24h, 4°C) Accuracy [%]” value ([2]; validation standard ULOV) of the same compound?
The value was 100.2%.

And the “Autosampler (72h, 4°C) Accuracy [%]” value ([2]; validation standard ULOV)?
Its value is 104.1%.

And the “Freeze-Thaw Accuracy [%]” value ([3]; validation standard 2xLLOV)?
Its value is 104.5%.

And the “Freeze-Thaw Accuracy [%]” value ([3]; validation standard LLOV)?
Its value is 105.9%.

What about the “Freeze-Thaw Accuracy [%]” value ([3]; validation standard MOV) of the same compound?
The value was 101.5%.

What about the “Freeze-Thaw Accuracy [%]” value ([3]; validation standard ULOV) of the same compound?
Its value is 100.2%.

With CN(C)C/C=C/C(=O)Nc1cc2c(Nc3ccc(F)c(Cl)c3)ncnc2cc1O[C@H]1CCOC1 [Afatinib] as the compound, how does the “cmin” value [1] read?
The value was 14.4 ng/mL.

And the “Autosampler (24h, 4°C) Accuracy [%]” value ([2]; validation standard 2xLLOV)?
The value was 103.2%.

And the “Autosampler (72h, 4°C) Accuracy [%]” value ([2]; validation standard 2xLLOV)?
The value was 99.3%.

What about the “Autosampler (24h, 4°C) Accuracy [%]” value ([2]; validation standard LLOV) of the same compound?
The value was 91.7%.

And the “Autosampler (72h, 4°C) Accuracy [%]” value ([2]; validation standard LLOV)?
Its value is 83.0%.

What about the “Autosampler (24h, 4°C) Accuracy [%]” value ([2]; validation standard MOV) of the same compound?
The value was 102.6%.

What about the “Autosampler (72h, 4°C) Accuracy [%]” value ([2]; validation standard MOV) of the same compound?
Its value is 103.4%.

And the “Autosampler (24h, 4°C) Accuracy [%]” value ([2]; validation standard ULOV)?
Its value is 98.7%.

What about the “Autosampler (72h, 4°C) Accuracy [%]” value ([2]; validation standard ULOV) of the same compound?
Its value is 99.3%.

And the “Freeze-Thaw Accuracy [%]” value ([3]; validation standard 2xLLOV)?
Its value is 100.0%.

What about the “Freeze-Thaw Accuracy [%]” value ([3]; validation standard LLOV) of the same compound?
Its value is 93.5%.

And the “Freeze-Thaw Accuracy [%]” value ([3]; validation standard MOV)?
The value was 96.1%.

And the “Freeze-Thaw Accuracy [%]” value ([3]; validation standard ULOV)?
The value was 95.0%.

With O=C1CN2Cc3c(ccc(Cl)c3Cl)N=C2N1 [Anagrelide] as the compound, how does the “Autosampler (24h, 4°C) Accuracy [%]” value ([2]; validation standard 2xLLOV) read?
The value was 113.2%.

And the “Autosampler (72h, 4°C) Accuracy [%]” value ([2]; validation standard 2xLLOV)?
The value was 106.1%.

What about the “Autosampler (24h, 4°C) Accuracy [%]” value ([2]; validation standard LLOV) of the same compound?
The value was 111.7%.

And the “Autosampler (72h, 4°C) Accuracy [%]” value ([2]; validation standard LLOV)?
Its value is 110.5%.

What about the “Autosampler (24h, 4°C) Accuracy [%]” value ([2]; validation standard MOV) of the same compound?
Its value is 104.6%.

What about the “Autosampler (72h, 4°C) Accuracy [%]” value ([2]; validation standard MOV) of the same compound?
The value was 96.8%.

What about the “Autosampler (24h, 4°C) Accuracy [%]” value ([2]; validation standard ULOV) of the same compound?
Its value is 101.8%.

What about the “Autosampler (72h, 4°C) Accuracy [%]” value ([2]; validation standard ULOV) of the same compound?
The value was 98.2%.

What about the “Freeze-Thaw Accuracy [%]” value ([3]; validation standard 2xLLOV) of the same compound?
The value was 96.5%.

And the “Freeze-Thaw Accuracy [%]” value ([3]; validation standard LLOV)?
The value was 92.8%.

What about the “Freeze-Thaw Accuracy [%]” value ([3]; validation standard MOV) of the same compound?
Its value is 93.8%.

And the “Freeze-Thaw Accuracy [%]” value ([3]; validation standard ULOV)?
The value was 99.6%.

Which results are given for Cc1ccc(NC(=O)c2ccc(CN3CCN(C)CC3)cc2)cc1Nc1nccc(-c2cccnc2)n1 [Imatinib]?
Autosampler (24h, 4°C) Accuracy [%] ([2]; validation standard 2xLLOV): 115.2%; Autosampler (72h, 4°C) Accuracy [%] ([2]; validation standard 2xLLOV): 116.1%; Autosampler (24h, 4°C) Accuracy [%] ([2]; validation standard LLOV): 102.3%; Autosampler (72h, 4°C) Accuracy [%] ([2]; validation standard LLOV): 103.7%; Autosampler (24h, 4°C) Accuracy [%] ([2]; validation standard MOV): 108.3%; Autosampler (72h, 4°C) Accuracy [%] ([2]; validation standard MOV): 101.7%; Autosampler (24h, 4°C) Accuracy [%] ([2]; validation standard ULOV): 95.3%; Autosampler (72h, 4°C) Accuracy [%] ([2]; validation standard ULOV): 95.2%; Freeze-Thaw Accuracy [%] ([3]; validation standard 2xLLOV): 98.5%; Freeze-Thaw Accuracy [%] ([3]; validation standard LLOV): 100.6%; Freeze-Thaw Accuracy [%] ([3]; validation standard MOV): 96.7%; Freeze-Thaw Accuracy [%] ([3]; validation standard ULOV): 96.3%

Which “Autosampler (24h, 4°C) Accuracy [%]” value ([2]; validation standard 2xLLOV) does the source give for CO[C@@H]1[C@H](N(C)C(=O)c2ccccc2)C[C@H]2O[C@]1(C)n1c3ccccc3c3c4c(c5c6ccccc6n2c5c31)C(=O)NC4 [Midostaurin] here?
Its value is 103.3%.

What about the “Autosampler (72h, 4°C) Accuracy [%]” value ([2]; validation standard 2xLLOV) of the same compound?
Its value is 103.0%.

And the “Autosampler (24h, 4°C) Accuracy [%]” value ([2]; validation standard LLOV)?
The value was 109.7%.

And the “Autosampler (72h, 4°C) Accuracy [%]” value ([2]; validation standard LLOV)?
The value was 108.2%.

And the “Autosampler (24h, 4°C) Accuracy [%]” value ([2]; validation standard MOV)?
Its value is 101.4%.

What about the “Autosampler (72h, 4°C) Accuracy [%]” value ([2]; validation standard MOV) of the same compound?
Its value is 103.7%.

And the “Autosampler (24h, 4°C) Accuracy [%]” value ([2]; validation standard ULOV)?
Its value is 102.8%.

And the “Autosampler (72h, 4°C) Accuracy [%]” value ([2]; validation standard ULOV)?
Its value is 97.9%.

What about the “Freeze-Thaw Accuracy [%]” value ([3]; validation standard 2xLLOV) of the same compound?
The value was 95.9%.

And the “Freeze-Thaw Accuracy [%]” value ([3]; validation standard LLOV)?
Its value is 100.6%.

What about the “Freeze-Thaw Accuracy [%]” value ([3]; validation standard MOV) of the same compound?
The value was 94.6%.

And the “Freeze-Thaw Accuracy [%]” value ([3]; validation standard ULOV)?
Its value is 97.4%.

For Cc1[nH]c2ccccc2c1CCNCc1ccc(/C=C/C(=O)NO)cc1 [Panobinostat], which “Autosampler (24h, 4°C) Accuracy [%]” value ([2]; validation standard 2xLLOV) is on record?
The value was 100.3%.

What about the “Autosampler (72h, 4°C) Accuracy [%]” value ([2]; validation standard 2xLLOV) of the same compound?
The value was 95.4%.

What about the “Autosampler (24h, 4°C) Accuracy [%]” value ([2]; validation standard LLOV) of the same compound?
The value was 83.8%.

And the “Autosampler (72h, 4°C) Accuracy [%]” value ([2]; validation standard LLOV)?
Its value is 73.7%.

And the “Autosampler (24h, 4°C) Accuracy [%]” value ([2]; validation standard MOV)?
Its value is 102.4%.

And the “Autosampler (72h, 4°C) Accuracy [%]” value ([2]; validation standard MOV)?
The value was 101.0%.

What about the “Autosampler (24h, 4°C) Accuracy [%]” value ([2]; validation standard ULOV) of the same compound?
Its value is 95.4%.

And the “Autosampler (72h, 4°C) Accuracy [%]” value ([2]; validation standard ULOV)?
Its value is 101.1%.

And the “Freeze-Thaw Accuracy [%]” value ([3]; validation standard 2xLLOV)?
Its value is 107.5%.

What about the “Freeze-Thaw Accuracy [%]” value ([3]; validation standard LLOV) of the same compound?
Its value is 104.3%.

What about the “Freeze-Thaw Accuracy [%]” value ([3]; validation standard MOV) of the same compound?
The value was 98.8%.

What about the “Freeze-Thaw Accuracy [%]” value ([3]; validation standard ULOV) of the same compound?
The value was 102.3%.

With O=c1[nH]c(=O)n([C@H]2C[C@H](O)[C@@H](CO)O2)cc1C(F)(F)F [Trifluridine] as the compound, how does the “Autosampler (24h, 4°C) Accuracy [%]” value ([2]; validation standard 2xLLOV) read?
Its value is 117.8%.

What about the “Autosampler (72h, 4°C) Accuracy [%]” value ([2]; validation standard 2xLLOV) of the same compound?
The value was 107.4%.

And the “Autosampler (24h, 4°C) Accuracy [%]” value ([2]; validation standard LLOV)?
Its value is 97.0%.

And the “Autosampler (72h, 4°C) Accuracy [%]” value ([2]; validation standard LLOV)?
Its value is 86.9%.

And the “Autosampler (24h, 4°C) Accuracy [%]” value ([2]; validation standard MOV)?
Its value is 113.1%.

What about the “Autosampler (72h, 4°C) Accuracy [%]” value ([2]; validation standard MOV) of the same compound?
The value was 102.7%.

What about the “Autosampler (24h, 4°C) Accuracy [%]” value ([2]; validation standard ULOV) of the same compound?
The value was 104.4%.

And the “Autosampler (72h, 4°C) Accuracy [%]” value ([2]; validation standard ULOV)?
Its value is 98.4%.

And the “Freeze-Thaw Accuracy [%]” value ([3]; validation standard 2xLLOV)?
The value was 101.6%.

What about the “Freeze-Thaw Accuracy [%]” value ([3]; validation standard LLOV) of the same compound?
The value was 80.9%.

What about the “Freeze-Thaw Accuracy [%]” value ([3]; validation standard MOV) of the same compound?
Its value is 94.4%.

And the “Freeze-Thaw Accuracy [%]” value ([3]; validation standard ULOV)?
The value was 91.6%.

— publication PMC8699473, “An Easily Expandable Multi-Drug LC-MS Assay for the Simultaneous Quantification of 57 Oral Antitumor Drugs in Human Plasma” (Cancers, 2021)
